Test results: patent US20080194493A1, “Compositions Containing D-Carnosine” (priority 2004, published 2008)
Read-outs that look alike come from different tables or passages of the source.

Key:
[1] = molecular target: T1, carnosinases (Homo sapiens, UniProt Q96KN2); conditions: cited from earlier work
T1 construct: host or cells: human serum
T1 sequence (Q96KN2 27-507 limits assumed): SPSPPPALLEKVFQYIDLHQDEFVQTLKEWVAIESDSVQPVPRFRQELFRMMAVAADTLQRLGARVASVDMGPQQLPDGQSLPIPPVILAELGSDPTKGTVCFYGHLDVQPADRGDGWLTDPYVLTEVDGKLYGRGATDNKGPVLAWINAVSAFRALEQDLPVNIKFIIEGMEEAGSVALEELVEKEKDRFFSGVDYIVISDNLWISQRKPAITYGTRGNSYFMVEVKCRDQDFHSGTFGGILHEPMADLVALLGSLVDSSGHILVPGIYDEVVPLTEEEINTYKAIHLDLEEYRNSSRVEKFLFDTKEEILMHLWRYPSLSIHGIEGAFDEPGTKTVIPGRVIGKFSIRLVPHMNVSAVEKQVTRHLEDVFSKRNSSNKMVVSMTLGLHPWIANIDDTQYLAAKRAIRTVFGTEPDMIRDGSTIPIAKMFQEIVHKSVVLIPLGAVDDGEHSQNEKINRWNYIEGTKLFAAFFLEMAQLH

[2] = Reactivity towards HNE in homogeneous solution (aldehyde consumption by liquid chromatography); format: biochemical; conditions: for inhibited HNE: HNE 10 μm in 10 mM phosphate buffer, molar ratios 1:10 and 1:20
Protocol: The almost identical reactivity compared with the L-form towards cytotoxic aldehydes, especially HNE and acrolein, was confirmed in a homogenous solution of HNE (10 μm) and acrolein (200 μm) in 10 mM phosphate buffer in molar ratios of the dipeptides amounting to 1:10 and 1:20. […]

[3] = rat, in vivo, po, 570 mg/kg
Protocol: (§1) An LC-MS/MS technique, validated in the 5-250 μM range, with detection limits of 50-20 picomoles, was set-up for this purpose.
(§2) In the in vivo acute studies, D- and L-carnosine were administered orally to Wistar rats (320 g±25 g) in the form of an aqueous solution at pH 7.4 (HCl) at the dose of 570 mg/kg.

[4] = test system: Zucker rats; experiment: Pharmacological effects of chronic treatment in Zucker rats; format: in vivo
Excerpt: In particular, D-carnosine is effective for the treatment or prevention of disorders involving highly reactive and cytotoxic carbonyl derivatives (HNE, acrolein, malonyldialdehyde, glyoxal and dimethylglyoxal), especially Alzheimer's disease, atherosclerosis, disorders secondary to diabetes, age-associated tissue degeneration such as sarcopenia, and correlated disorders. Forms designed for topical administration are particularly indicated for the latter.

[5] = Chronic treatment with the diet water in obese-Zucker rats: levels in plasma, urine and kidney
Protocol: The stability of L- and D-carnosine was compared in human plasma and serum in vitro, and in vivo in the rat (acute and chronic treatment). An LC-MS/MS technique, validated in the 5-250 μM range, with detection limits of 50-20 picomoles, was set-up for this purpose.
In chronic treatment, D- and L-camosine were administered with the diet water for 12 weeks at a dose of 30 mg/Kg. The experiment was carried out by using obese-Zucker rats (Charles River), an animal model of metabolic disorders, characterized by hyperinsulinemia, insulin resistance, obesity, hypertriglyceridemia, hypercholesterolemia, and by an increased formation of lipid derived carbonyls, protein carbonylation and appearance of carbonyl-dependent degenerative process such as nephropathy and vascular dysfunction, (Metz T O, Alderson N L, Chachich M E, Thorpe S R, Baynes J W, Pyridoxamine traps intermediates in lipid peroxidation reactions in vivo: evidence on the role of lipids in chemical modification of protein and development of diabetic complications, J Biol Chem. 2003 October 24;278(43):42012-9.

[6] = Crossing of the blood-brain barrier (stated, no method)
[7] = In vitro stability in human plasma (LC-MS/MS); conditions: after 6 hours incubation at 37° C., in the presence and absence of cadmium chloride
[8] = In vivo acute study, oral administration to Wistar rats; conditions: 570 mg/kg
Protocol: as §1, §2

[9] = 30 mg/Kg with the diet water for 12 weeks

| Compound | hydrolysis in human serum [1] | inhibited HNE ([2]; after 24 hours) [%] | inhibited HNE ([2]; after one hour's incubation) [%] | time to disappear from the administration ([3]; Wistar) [h] | Cmax (time at which reached) [3] [min] | stability in human plasma | pharmacological effects of chronic treatment [4] | level in plasma [5, 9] [nM] | level in the kidney [5, 9] [nmoles/gr wt tissue] | level in urine [5, 9] [nmoles over 24 hrs] | increase of D-carnosine in respect to L-carnosine in plasma ([5]; 30 mg/Kg, 12 weeks) [fold] | increase of D-carnosine in respect to L-carnosine in urine as well as in the kidney ([5]; 30 mg/Kg, 12 weeks) | blood-brain barrier crossing [6] | activity towards HNE compared with aminoguanidine and methoxyamine [2] | reaction kinetics with HNE [2] | stability in human plasma [7] | Cmax reached at (time) [8] [h] | pharmacological levels maintained up to [8] | time to disappear from the administration [8] [h] |
| --- | --- | --- | --- | --- | --- | --- | --- | --- | --- | --- | --- | --- | --- | --- | --- | --- | --- | --- | --- |
| NCCC(=O)N[C@@H](Cc1cnc[nH]1)C(=O)O [L-carnosine, β-alanyl-L-histidine] | rapidly hydrolysed | 96.4 | 44 | ≤ 2 | 60 | undetectable | – | – | – | – | – | – | – | – | – | – | – | – | – |
| NCCC(=O)N[C@H](Cc1cnc[nH]1)C(=O)O [D-carnosine] | – | 98.3 | 49.2 | – | – | – | restrain: hypertriglyceridemia, hypercholesterolemia, hyperthenison, and carbonyl related disesases such as vascular dysfunction and nephropathy | 1240 ± 300 | 340.2±12.3 | 6688±345 | 6 | more than a ten-fold increase | able to cross the blood-brain barrier | far more active towards HNE than aminoguanidine and methoxyamine | first-order profile | remained unchanged | 2 | up to 8 hours | 24 |
